Consider 4 compounds from ChEMBL document CHEMBL3098114, “Combining the tail and the ring approaches for obtaining potent and isoform-selective carbonic anhydrase inhibitors: solution and X-ray crystallographic studies” (Bioorg Med Chem, 2014).

Molecules are shown by their SMILES.

Among the targets are Carbonic anhydrase 3 (Homo sapiens, UniProt P07451); Carbonic anhydrase 12 (Homo sapiens, UniProt O43570); Carbonic anhydrase 1 (Homo sapiens, UniProt P00915); Carbonic anhydrase 9 (Homo sapiens, UniProt Q16790); Carbonic anhydrase 13 (Homo sapiens, UniProt Q8N1Q1).
The next test has as its target Carbonic anhydrase 7 (Homo sapiens, UniProt P43166). The test can be described thus: Inhibition of human CA7 preincubated for 15 mins by stopped-flow CO2 hydration method.
In another test the target is Carbonic anhydrase 2 (Homo sapiens, UniProt P00918). Briefly: Inhibition of human CA2 cytosolic isoform preincubated for 15 mins by stopped-flow CO2 hydration method.

The Ki is a measure of affinity in units of concentration, obtained from inhibition or displacement. The low end stands for a stronger hold on the target, the high end for a looser hold on the target.

Chain of Carbonic anhydrase 7 (P43166 whole entry, canonical isoform): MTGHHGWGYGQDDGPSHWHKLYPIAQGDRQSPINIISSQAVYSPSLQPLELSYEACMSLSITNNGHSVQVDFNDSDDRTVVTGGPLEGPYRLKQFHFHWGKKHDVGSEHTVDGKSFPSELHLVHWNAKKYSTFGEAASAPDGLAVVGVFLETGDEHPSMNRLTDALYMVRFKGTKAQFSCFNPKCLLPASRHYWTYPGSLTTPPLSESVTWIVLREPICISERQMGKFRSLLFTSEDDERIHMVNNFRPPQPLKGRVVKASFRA
Chain of Carbonic anhydrase 3 (P07451 whole entry): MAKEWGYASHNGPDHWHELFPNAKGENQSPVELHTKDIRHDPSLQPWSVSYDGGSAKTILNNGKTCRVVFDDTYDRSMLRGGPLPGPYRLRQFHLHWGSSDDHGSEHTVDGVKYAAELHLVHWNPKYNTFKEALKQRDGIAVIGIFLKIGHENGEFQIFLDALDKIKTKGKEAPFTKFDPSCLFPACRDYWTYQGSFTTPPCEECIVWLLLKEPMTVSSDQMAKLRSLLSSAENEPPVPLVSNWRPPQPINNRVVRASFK
Chain of Carbonic anhydrase 13 (Q8N1Q1 whole entry): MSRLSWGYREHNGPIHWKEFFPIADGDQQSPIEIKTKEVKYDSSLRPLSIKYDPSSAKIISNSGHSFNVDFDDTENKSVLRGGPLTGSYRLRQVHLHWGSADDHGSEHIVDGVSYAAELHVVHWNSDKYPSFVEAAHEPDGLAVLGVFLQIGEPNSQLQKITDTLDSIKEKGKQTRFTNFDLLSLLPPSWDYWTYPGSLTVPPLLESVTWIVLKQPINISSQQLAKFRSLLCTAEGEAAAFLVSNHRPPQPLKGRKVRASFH
Chain of Carbonic anhydrase 1 (P00915 whole entry): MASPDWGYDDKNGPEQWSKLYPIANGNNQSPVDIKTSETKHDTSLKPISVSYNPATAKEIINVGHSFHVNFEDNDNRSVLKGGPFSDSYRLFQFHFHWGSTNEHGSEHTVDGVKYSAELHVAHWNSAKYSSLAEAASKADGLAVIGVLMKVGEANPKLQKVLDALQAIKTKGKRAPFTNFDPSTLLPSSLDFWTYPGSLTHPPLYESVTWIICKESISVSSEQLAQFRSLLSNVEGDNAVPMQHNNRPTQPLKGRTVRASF
Chain of Carbonic anhydrase 12 (O43570 whole entry): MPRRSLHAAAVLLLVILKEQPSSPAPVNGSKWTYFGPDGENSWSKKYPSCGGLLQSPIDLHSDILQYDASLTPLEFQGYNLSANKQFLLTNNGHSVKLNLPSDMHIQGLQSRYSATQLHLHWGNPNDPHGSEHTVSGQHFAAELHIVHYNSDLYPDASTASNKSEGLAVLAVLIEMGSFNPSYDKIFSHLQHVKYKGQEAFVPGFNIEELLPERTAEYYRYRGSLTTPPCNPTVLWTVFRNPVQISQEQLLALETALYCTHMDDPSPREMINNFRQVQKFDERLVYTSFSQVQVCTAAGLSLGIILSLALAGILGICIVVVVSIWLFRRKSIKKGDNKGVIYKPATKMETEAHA

Turning to `Cc1ccc(S(=O)(=O)NC(=O)Nc2ccc(S(N)(=O)=O)nc2)cc1`, the values for the Ki on Carbonic anhydrase 7 and at Carbonic anhydrase 3 were 30 nM and greater than 100000 nM, respectively.

For the compound `Nc1ccc(S(N)(=O)=O)nc1`, the Ki was 253 nM on Carbonic anhydrase 2; 114 nM on Carbonic anhydrase 12; 24700 nM at Carbonic anhydrase 1; 135 nM on Carbonic anhydrase 7; 279 nM on Carbonic anhydrase 9; greater than 100000 nM at Carbonic anhydrase 3.

In the case of `Cc1ccc(S(=O)(=O)NC(=O)Nc2ccc(S(N)(=O)=O)cc2)cc1`, the Ki at Carbonic anhydrase 7 is 6.4 nM; at Carbonic anhydrase 3 it was greater than 100000 nM.

Take `Nc1ccc(S(N)(=O)=O)cc1` [SULFANILAMIDE]: the Ki was 35 nM on Carbonic anhydrase 13 and greater than 100000 nM at Carbonic anhydrase 3.
